Columns and labels:
surinam grass = assay: Test B pre/postemergence surinam grass; assay type: in vivo, Brachiaria decumbens
Procedure, shortened: (§1)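 Herbicidal effect was estimated by eye on a ten-point control scale after plants spent twelve to sixteen days in a greenhouse following soil or foliar treatment. Foliar sprays targeted plants at one to four leaves; all doses were formulated in a non-phytotoxic solvent with surfactant.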

giant foxtail = assay: Test B pre/postemergence giant foxtail; assay type: in vivo, Setaria faberii
Procedure, shortened: as §1

blackgrass = assay: Test B pre/postemergence blackgrass; assay type: in vivo, Alopecurus myosuroides
Procedure, shortened: as §1

purple nutsedge = assay: Test B pre/postemergence purple nutsedge; assay type: in vivo, Cyperus rotundus
Procedure, shortened: as §1

crabgrass = assay: Test B pre/postemergence crabgrass; assay type: in vivo, Digitaria sanguinalis
Procedure, shortened: as §1

soybean = assay: Test B pre/postemergence soybean; assay type: in vivo, Glycine max
Procedure, shortened: as §1

wild oat = assay: Test B pre/postemergence wild oat; assay type: in vivo, Avena fatua
Procedure, shortened: as §1

smallflower flatsedge = assay: Test B flood test smallflower flatsedge; assay type: in vivo, Cyperus difformis
Procedure, shortened: (§2)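 Each value is a visual injury score relative to controls, with 10 meaning complete control and 0 no effect. Evaluation took place twelve to sixteen days after the 2-leaf-stage plants were treated and kept in the greenhouse.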

bamyardgrass = assay: Test B flood test barnyardgrass; assay type: in vivo, Echinochloa crus-galli
Procedure, shortened: as §2

morningglory = assay: Test B pre/postemergence morningglory; assay type: in vivo, Ipomoea hederacea
Procedure, shortened: as §1

corn = assay: Test B pre/postemergence corn; assay type: in vivo, Zea mays
Procedure, shortened: as §1

duck salad = assay: Test B flood test duck salad; assay type: in vivo, Heteranthera limosa
Procedure, shortened: as §2

wheat = assay: Test B pre/postemergence wheat; assay type: in vivo, Triticum aestivum
Procedure, shortened: as §1

bedstraw = assay: Test B pre/postemergence bedstraw; assay type: in vivo, Galium aparine
Procedure, shortened: as §1

cocklebur = assay: Test B pre/postemergence cocklebur; assay type: in vivo, Xanthium strumarium
Procedure, shortened: as §1

velvetleaf = assay: Test B pre/postemergence velvetleaf; assay type: in vivo, Abutilon theophrasti
Procedure, shortened: as §1

rice = assay: Test B flood test rice; assay type: in vivo, Oryza sativa
Procedure, shortened: as §2

[1] = Postemergence, Rate 62 g/ha, scale 0 to 10, 0 is no effect, 10 is complete control
[2] = Postemergence, Rate 250 g/ha, scale 0 to 10, 0 no effect, 10 complete control
[3] = Preemergence, Rate 62 g/ha, scale 0 to 10 (0 no effect, 10 complete control)
[4] = Preemergence, Rate 125 g/ha, scale 0 to 10 (0 no effect, 10 complete control)
[5] = Preemergence, Rate 250 g/ha, scale of 0 to 10 where 0 is no effect and 10 is complete control
[6] = Preemergence, Rate 500 g/ha, scale 0 (no effect) to 10 (complete control)
[7] = Rate 125 g/ha, Postemergence, scale 0 to 10, 0 no effect, 10 complete control
[8] = Rate 500 g/ha, Postemergence, scale 0 to 10, 0 no effect, 10 complete control
[9] = Rate 125 g/ha, Postemergence section (flood test species), scale 0 to 10, 0 no effect, 10 complete control
[10] = Rate 500 g/ha, listed under Postemergence (flood test species), scale 0 to 10, 0 no effect, 10 complete control
[11] = flood test, listed under Postemergence, Rate 250 g/ha, scale 0 to 10, 0 no effect, 10 complete control

Cc1nn(C)c(C)c1-n1c(=O)on(C(=O)N(c2ccc(F)cc2)C(C)C)c1=O [Compound 75]
10: Giant foxtail plant response rating (giant foxtail; [6]) | Plant response rating, Crabgrass (crabgrass; [5]) | Crabgrass plant response rating (crabgrass; [6])
8: B. signalgrass plant response rating (surinam grass; [6]) | B. signalgrass plant response rating (surinam grass; Rate 500 g/ha, Postemergence, scale of 0 to 10 where 0 is no effect and 10 is complete control) | Giant foxtail plant response rating (giant foxtail; [2]) | Giant foxtail plant response rating (giant foxtail; [8]) | Plant response rating, Crabgrass (crabgrass; [4]) | Plant response rating, Wild oats (wild oat; [5]) | Wild oats plant response rating (wild oat; [6])
2: B. signalgrass plant response rating (surinam grass; [1]) | Plant response rating, B. signalgrass (surinam grass; [5]) | Crabgrass plant response rating (crabgrass; [7]) | Soybean plant response rating (soybean; [2]) | Soybean plant response rating (soybean; [8]) | Wild oats plant response rating (wild oat; [8]) | Morningglory plant response rating (morningglory; [6]) | Wheat plant response rating (wheat; [2]) | Rice plant response rating (rice; [1]) | Rice plant response rating (rice; [9]) | Rice plant response rating (rice; [10]) | Rice plant response rating (rice; [11])
5: Blackgrass plant response rating (blackgrass; [7])
4: Wheat plant response rating (wheat; [8])
0: B. signalgrass plant response rating (surinam grass; [3]) | Blackgrass plant response rating (blackgrass; [3]) | Nutsedge plant response rating (purple nutsedge; [1]) | Nutsedge plant response rating (purple nutsedge; [2]) | Nutsedge plant response rating (purple nutsedge; [3]) | Plant response rating, Nutsedge (purple nutsedge; [4]) | Plant response rating, Nutsedge (purple nutsedge; [5]) | Nutsedge plant response rating (purple nutsedge; [6]) | Nutsedge plant response rating (purple nutsedge; [7]) | Nutsedge plant response rating (purple nutsedge; [8]) | Crabgrass plant response rating (crabgrass; [1]) | Soybean plant response rating (soybean; [3]) | Plant response rating, Soybean (soybean; [4]) | Plant response rating, Soybean (soybean; [5]) | Soybean plant response rating (soybean; [6]) | Wild oats plant response rating (wild oat; [1]) | Wild oats plant response rating (wild oat; [2]) | Wild oats plant response rating (wild oat; [3]) | Plant response rating, Wild oats (wild oat; [4]) | Wild oats plant response rating (wild oat; [7]) | S. Flatsedge plant response rating (smallflower flatsedge; [1]) | S. Flatsedge plant response rating (smallflower flatsedge; [9]) | S. Flatsedge plant response rating (smallflower flatsedge; [10]) | S. Flatsedge plant response rating (smallflower flatsedge; [11]) | Barnyardgrass plant response rating (bamyardgrass; [1]) | Barnyardgrass plant response rating (bamyardgrass; [9]) | Barnyardgrass plant response rating (bamyardgrass; [10]) | Barnyardgrass plant response rating (bamyardgrass; [11]) | Morningglory plant response rating (morningglory; [3]) | Plant response rating, Morningglory (morningglory; [4]) | Plant response rating, Morningglory (morningglory; [5]) | Corn plant response rating (corn; [1]) | Corn plant response rating (corn; [2]) | Corn plant response rating (corn; [3]) | Plant response rating, Corn (corn; [4]) | Plant response rating, Corn (corn; [5]) | Corn plant response rating (corn; [6]) | Corn plant response rating (corn; [7]) | Corn plant response rating (corn; [8]) | Ducksalad plant response rating (duck salad; [1]) | Ducksalad plant response rating (duck salad; [9]) | Ducksalad plant response rating (duck salad; [10]) | Ducksalad plant response rating (duck salad; [11]) | Wheat plant response rating (wheat; [1]) | Wheat plant response rating (wheat; [3]) | Plant response rating, Wheat (wheat; [4]) | Plant response rating, Wheat (wheat; [5]) | Wheat plant response rating (wheat; [7]) | Bedstraw plant response rating (bedstraw; [1]) | Bedstraw plant response rating (bedstraw; [2]) | Bedstraw plant response rating (bedstraw; [3]) | Plant response rating, Bedstraw (bedstraw; [4]) | Plant response rating, Bedstraw (bedstraw; [5]) | Bedstraw plant response rating (bedstraw; [6]) | Bedstraw plant response rating (bedstraw; [7]) | Bedstraw plant response rating (bedstraw; [8]) | Cocklebur plant response rating (cocklebur; [1]) | Cocklebur plant response rating (cocklebur; [3]) | Plant response rating, Cocklebur (cocklebur; [4]) | Plant response rating, Cocklebur (cocklebur; [5]) | Cocklebur plant response rating (cocklebur; [6]) | Cocklebur plant response rating (cocklebur; [7]) | Velvetleaf plant response rating (velvetleaf; [1]) | Velvetleaf plant response rating (velvetleaf; [2]) | Velvetleaf plant response rating (velvetleaf; [3]) | Plant response rating, Velvetleaf (velvetleaf; [4]) | Plant response rating, Velvetleaf (velvetleaf; [5]) | Velvetleaf plant response rating (velvetleaf; [6]) | Velvetleaf plant response rating (velvetleaf; [7]) | Velvetleaf plant response rating (velvetleaf; [8])
7: Blackgrass plant response rating (blackgrass; [2]) | Plant response rating, Blackgrass (blackgrass; [5])
1: Plant response rating, B. signalgrass (surinam grass; [4]) | Plant response rating, Blackgrass (blackgrass; [4]) | Soybean plant response rating (soybean; [1]) | Soybean plant response rating (soybean; [7]) | Morningglory plant response rating (morningglory; [1]) | Morningglory plant response rating (morningglory; [2]) | Morningglory plant response rating (morningglory; [7]) | Cocklebur plant response rating (cocklebur; [2]) | Cocklebur plant response rating (cocklebur; [8])
6: B. signalgrass plant response rating (surinam grass; [2]) | Giant foxtail plant response rating (giant foxtail; [3]) | Giant foxtail plant response rating (giant foxtail; [7])
9: Plant response rating, Giant foxtail (giant foxtail; [4]) | Plant response rating, Giant foxtail (giant foxtail; [5]) | Blackgrass plant response rating (blackgrass; [6]) | Blackgrass plant response rating (blackgrass; [8]) | Crabgrass plant response rating (crabgrass; [2]) | Crabgrass plant response rating (crabgrass; [8])
3: B. signalgrass plant response rating (surinam grass; [7]) | Giant foxtail plant response rating (giant foxtail; [1]) | Blackgrass plant response rating (blackgrass; [1]) | Crabgrass plant response rating (crabgrass; [3]) | Morningglory plant response rating (morningglory; [8]) | Wheat plant response rating (wheat; [6])

From patent US6737383B1, “Herbicidal oxadiazolidines” (priority 1999, dated 2004)
